Entries after “also recorded” stand apart in the source; their conditions may differ.
What was measured:
[1] = test system: Ngb mRNA; assay: Ngb mRNA expression in HN33 cells (RT-PCR, quantitative RT-PCR, Northern blot); type: cell-based, mouse
Procedure: (§1) HN33 cells were cultured as described (Lee et al. (1990) J Neurosci. 10: 1779-1787; Shi et al. (1998) J Neurochem., 70:1035-1044; Jin et al. (2000) Proc Nati Acad Sci USA., 97:10242-10247). Cells were plated at 4×10^5 cells/well onto uncoated, 6-well plastic culture dishes in Dulbecco's modified Eagle's medium containing 10% (v/v) fetal bovine serum, 100 units/ml of penicillin and 100 μg/ml of streptomycin, and maintained at 37° C. in humidified 95% air/5% CO2. Cells were treated with hemin (typically 50 μM) or 8-Br-cGMP (10 μM) for up to 3 days, without daily replacement. To suppress sGC or PKG activity, cells were pretreated for 1 hour with inhibitors before adding other reagents.
RT-PCR and Northern blot analyses were carried out as described previously (Zhu and Zhang (1999) Biochem Biophys Res Commun., 258:87-93). Briefly, total RNA from treated and untreated cells was extracted using a RNeasy Mini Kit (QIAGEN Operon, Valencia, Calif.), and DNA-free total RNA (2 μg per sample) was reverse-transcribed into first-strand cDNA using the Reverse Transcription System and Oligo-dT12-18 (GIBCO-BRL, Rockville, Md.) (Id.). Sequences of the primers used for PCR amplification were: Ngb forward, 5′ CTCTGGAACATGGCACTGTC 3′ (nt 135-154, SEQ ID NO:7); Ngb reverse, 5′ GCACTGGCTCGTCTCTTACT 3′ (nt 547-528, SEQ ID NO:8); β-actin forward, 5′ CACAGGCATTGTGATGGACTC 3′ (nt 524-544, SEQ ID NO:9); β-actin reverse, 5′ GCTCAGGAGGAGCAATGATCT 3′ (nt 582-563, (SEQ ID NO:10). Primers were designed based on the published sequences of these genes and were synth esized by QIAGEN Operon. All PCR primer pairs gave rise to only one discrete band of the expected size. PCR reactions were carried out in a total volume of 25 μl containing 2 μl cDNA, 1×PCR buffer (Boehringer Mannheim, Mannheim, FRG), 200 μM dNTPs, 0.6 U Taq DNA polymerase (Boehringer Mannheim), and 0.2 μM primers. The optimal conditions for amplification (temperature and cycle number) were determined experimentally according to previously published procedures (Id.). Different ratios of Ngb to b-actin primer pairs were tested to ensure that Ngb and b-actin were amplified with similar efficiency, and a kinetic study was undertaken to establish the number of cycles sufficient to detect both Ngb and b-actin without reaching saturation for either. The parameters chosen for PCR amplification were 95° C. for 1 minute, 57° C. for 45 seconds, 72° C. for 1 minute for 25-30 cycles, and a final incubation at 72° C. for 10 minutes. PCR products were separated on 1.2% agarose gels, visualized by ethidium bromide staining, and quantified using a ChemiImage System (Alpha Innotech Corporation, San Leandro, Calif.).
For Northern blotting, 15 μg of total RNA from each sample was fractionated on 1% formaldehyde/agarose gels and transferred to Hybond-N nylon membranes (Amersham Pharmacia, Piscataway, N.J.). Filters were hybridized with probes for Ngb MRNA, and β-actin mRNA at 68° C. in hybridization buffer (Clontech, Palo Alto, Calif.). ^32P-radiolabeled DNA probes were synthesized using cDNA obtained from RT-PCR amplification.
Quantitative RT-PCR analysis was carried out as described previously.8 PCR reactions were carried out in a total volume of 25 μl containing 1 μI cDNA, 1×PCR buffer (Boehringer Mannheim), 200 μM dNTPs, 0.6 U Taq DNA polymerase (Boehringer Mannheim), two pairs of primers (one pair for the Ngb gene, another for the b-actin gene used as an internal control). The optimal conditions for amplification (the proportion between the two pairs of primers, temperatures, and cycle numbers) were determined experimentally according to previously established procedures.8 PCR products were separated on 1.2% agarose gels, visualized by ethidium bromide staining, and quantified using a ChemiImage System (Alpha Innotech Corporation).

[2] = test system: cGMP; assay: Intracellular cGMP content in HN33 cells (enzyme immunoassay); type: cell-based, mouse
Procedure: HN33 cells (4×10^4 cells in 100 μl) were plated on 96-well microtiter plates and treated with 50 μM hemin for 2, 8, 16, or 24 hours. Intracellular cGMP concentrations were measured in quadruplicate using a cGMP enzyme-immunoassay system (Amersham Pharmacia).

[3] = test system: transient forebrain ischemia; details: rats, direct administration after transient forebrain ischemia; cited from earlier work
[4] = test system: Ngb protein; assay: Ngb protein expression in HN33 cells (Western blot); type: cell-based, mouse
Procedure: as §1
Cells were washed twice in PBS, and whole-cell extracts were prepared by adding 10 volumes of 1× sample buffer containing 2% SDS, 100 mM dithiothreitol, 60 mM Tris (pH 6.8) and 10% glycerol, and boiled for 5 minutes. Protein concentrations were determined using Bradford Protein Assays (Bio-Rad, Hercules, Calif.); 30 μg of protein was analyzed by 12% or 15% SDS-PAGE and transferred to Immuno-Blot PVDF membranes (Bio-Rad). Membranes were probed with affinity-purified anti-Ngb antibody, which was produced by immunizing with a synthetic peptide corresponding to amino-acids 35-50 (NH2-CLSSPEFLDHIRKVML-COOH, (SEQ ID NO:11) of mouse Ngb (Sun et aL (2001 Proc Natl Acad Sci USA. 98:15306-15311),and the signal was detected with Boehringer Mannheim chemiluminescence blotting kits. Differences in protein expression on Western blots were quantified using a GS-710 calibrated imaging densitometer and Quantity One software (Bio-Rad).

[5] = test system: K562 cells; details: 50 μM hemin for 2-3 days; cited from earlier work
[6] = test system: vascular endothelial growth factor; details: aortic smooth muscle cells; cited from earlier work
[7] = test system: HN33 cells; assay: HN33 cell viability (MTT); type: cell-based, mouse
Procedure: Cell viability was assessed by measuring formazan produced by the reduction of 3-(4,5-dimethylthiazol-2-yl)-2,5-diphenyl tetrazolium bromide (MTT) in viable cells.3 Cells were incubated with 5 mg/ml of MTT (Sigma) at 37° C. for 2 hours. The medium was removed and cells were solubilized with dimethylsufoxide and transferred to 96-well plates. The formazan reduction product was detected by measuring absorbance at 570 nm in a Cytofluor Series 4000 multi-well plate-reader (PerSeptive Biosystems, Framingham, Mass.). Results were expressed as a percentage of control absorbance, measured in normoxic cultures, after subtracting background absorbance (measured in freeze-thawed cultures) from all values.

Substance: hemin
- maximal increase in neuroglobin mRNA level ([1]; 50 μM hemin, 8-24 hours): about 4 fold
- Ngb mRNA levels (Northern blot) ([1]; HN33 cells, 50 μM hemin for 16 hours): about 4 fold
- Maximal induction of Ngb mRNA expression (RT-PCR, normalized for β-actin) ([1]; HN33 cells, hemin 24 h, maximal at 25-50 μM): 4 fold
- cGMP levels by 24 hours ([2]; 50 μM hemin): returned to near basal levels
- increase in cGMP levels ([2]; 50 μM hemin for 2 to 12 hours): 8- to 15 fold
- increase in cGMP levels (summary) ([2]; hemin): > 10 fold
- neuroprotection: viable neurons in cerebral cortex and striatum [3]: significantly increases the number of viable neurons
- maximal increase in neuroglobin protein level ([4]; 50 μM hemin, 8-24 hours): about 4 fold
- persistence of Ngb protein induction ([4]; HN33 cells, 50 μM hemin): at least 3 days
- time at which induction of Ngb protein was evident ([4]; HN33 cells, 50 μM hemin): 2 h
- induction of Ngb protein ([4]; HN33 cells, 50 μM hemin for up to 3 days): about 4 times basal levels of expression
- cells producing a high level of hemoglobin [5]: more than 50%
- effect on hypoxic induction of vascular endothelial growth factor [6]: suppress
- difference in viability relative to control ([7]; 100 μM hemin, 24 hours, HN33 cells): significant (P<0.05) difference in viability
- reduction of cell viability ([7]; 100 μM hemin, HN33 cells, MTT): ~15%
- effect on HN33 cell viability ([7]; hemin 0-50 μM for 24 h, or 50 μM for up to 3 days, MTT): no effect on cell viability; also recorded: does not alter HN33 cell viability
